Test results taken from article PMC10740956, “A Multitarget Approach against Neuroinflammation: Alkyl Substituted Coumarins as Inhibitors of Enzymes Involved in Neurodegeneration” (Antioxidants, 2023).
Values joined by “and” are separate entries in the source; they are usually repeats but may differ in a detail not shown here. Equal entries are not always repeated. “Also recorded” adds a separate entry of the source. Where two headings read alike, the source gives them in different places.

Tests used:
[1] = tested on: Interleukin-6 secretion from rat astrocytes pre-stimulated with LPS; test: IL-6 secretion by ELISA in LPS pre-stimulated astrocytes; format: cell-based; conditions: 24 h, compared to LPS alone
Description: (§1) Cells were seeded (8 × 10^3/well) and were left to adhere for 24 h in 96-well plates (Falcon®, Corning Incorporated, NY, USA). The medium was removed, incubating the cell monolayer in the presence of increasing concentrations of DEP, AAZ, and test compounds (0–150 µM) for 24–72 h. In a second set of experiments, cells were pre-incubated in the presence of 0.1 µg/mL LPS (lipopolysaccharide from E. coli, purchased from Merck, Darmstadt, Germany) for 20 h and further exposed to DEP, AAZ, and test compounds in the same experimental conditions.
The amounts (pg/mL) of interleukin-6 (IL-6) were analyzed in cell supernatants using an ELISA kit (Enzo Life Sciences Inc., Lausen, Switzerland) following the manufacturer’s instructions. Absorbance was read at 450 nm and cytokine concentration was determined. Data obtained were normalized on MTT optical densities.

[2] = target: hCA I (Homo sapiens, UniProt P00915); test: stopped flow CO2 hydrase assay, hCA I; format: biochemical; conditions: mean of 3 different assays
[3] = target: hCA II (Homo sapiens, UniProt P00918); test: stopped flow CO2 hydrase assay, hCA II; format: biochemical; conditions: mean of 3 different assays
[4] = target: hCA VII (Homo sapiens, UniProt P43166); test: stopped flow CO2 hydrase assay, hCA VII; format: biochemical; conditions: mean of 3 different assays
[5] = target: hCA IX (Homo sapiens, UniProt Q16790); test: stopped flow CO2 hydrase assay, hCA IX; format: biochemical; conditions: mean of 3 different assays
[6] = target: hCA XII (Homo sapiens, UniProt O43570); test: stopped flow CO2 hydrase assay, hCA XII; format: biochemical
[7] = target: T1, hMAO-A (Homo sapiens, UniProt P21397); test: hMAO-A inhibition, recombinant enzyme, kynuramine substrate, fluorescence; format: biochemical; conditions: mean ± SD of triplicate determinations
T1 construct: purchased Sigma-Aldrich
T1 sequence (P21397 1-527): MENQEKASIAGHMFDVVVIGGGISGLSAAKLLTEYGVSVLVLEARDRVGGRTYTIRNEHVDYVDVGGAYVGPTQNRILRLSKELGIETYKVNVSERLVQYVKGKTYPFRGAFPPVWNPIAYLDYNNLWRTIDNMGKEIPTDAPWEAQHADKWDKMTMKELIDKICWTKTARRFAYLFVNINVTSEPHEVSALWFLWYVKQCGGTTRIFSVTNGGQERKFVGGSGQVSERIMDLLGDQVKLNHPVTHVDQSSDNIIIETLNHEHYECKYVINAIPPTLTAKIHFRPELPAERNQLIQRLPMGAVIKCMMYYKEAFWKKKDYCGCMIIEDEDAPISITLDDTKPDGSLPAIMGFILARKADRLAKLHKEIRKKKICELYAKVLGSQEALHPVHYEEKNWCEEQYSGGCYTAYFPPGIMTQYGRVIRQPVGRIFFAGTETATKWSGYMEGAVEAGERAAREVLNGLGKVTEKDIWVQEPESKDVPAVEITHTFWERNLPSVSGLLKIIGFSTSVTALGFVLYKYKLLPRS

[8] = target: T2, hMAO-B (Homo sapiens, UniProt P27338); test: hMAO-B inhibition, recombinant enzyme, kynuramine substrate, fluorescence; format: biochemical; conditions: for SI (selectivity index for hMAO-B over hMAO-A): IC50 hMAO-A/IC50 hMAO-B; for IC50: mean ± SD of triplicate determinations
T2 construct: purchased Sigma-Aldrich
T2 sequence (P27338 1-520): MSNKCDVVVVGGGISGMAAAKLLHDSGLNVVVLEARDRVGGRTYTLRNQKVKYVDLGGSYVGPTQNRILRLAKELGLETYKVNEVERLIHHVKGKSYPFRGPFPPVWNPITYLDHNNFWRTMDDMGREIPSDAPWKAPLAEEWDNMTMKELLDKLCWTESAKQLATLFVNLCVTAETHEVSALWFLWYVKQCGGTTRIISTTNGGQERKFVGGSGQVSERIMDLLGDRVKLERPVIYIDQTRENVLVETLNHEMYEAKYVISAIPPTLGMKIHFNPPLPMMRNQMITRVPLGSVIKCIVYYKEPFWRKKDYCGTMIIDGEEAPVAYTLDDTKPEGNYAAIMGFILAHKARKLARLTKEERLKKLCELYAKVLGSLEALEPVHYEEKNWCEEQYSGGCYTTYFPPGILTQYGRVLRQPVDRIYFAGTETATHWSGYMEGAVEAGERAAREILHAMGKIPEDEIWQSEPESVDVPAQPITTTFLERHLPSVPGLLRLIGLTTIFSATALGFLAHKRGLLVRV

[9] = target: T3, AChE (electric eel) (Electrophorus electricus, UniProt O42275); test: biochemical; conditions: for IC50: mean ± SD of triplicate determinations
T3 construct: from tissue

[10] = target: T4, BuChE (equine serum) (Equus caballus, UniProt P81908); test: biochemical; format: biochemical; conditions: for IC50: mean ± SD of triplicate determinations
T4 construct: from tissue; host or cells: equine serum

[11] = tested on: CTX/TNA2 rat astrocytes; test: Cell metabolic activity assay (MTT), non-inflammatory conditions; format: cell-based; conditions: 0-150 µM, 24-72 h
[12] = tested on: CTX/TNA2 rat astrocytes pre-stimulated with LPS; test: Cell metabolic activity assay (MTT), LPS pre-stimulated astrocytes; format: cell-based; conditions: pre-stimulated with 0.1 µg/mL LPS 20 h, then compounds 24 and 72 h
[13] = tested on: H2O2 generation in rat astrocytes pre-stimulated with LPS; test: Hydrogen peroxide measurement in supernatants of LPS pre-stimulated astrocytes; format: cell-based; conditions: 24 h
Description: as §1
At 24 h, cell supernatants were taken from the cultures used for the MTT assay. The quantitative determination of H2O2 released in supernatants was performed by means of a H2O2 colorimetric kit (cat. no. ADI-907-015, Enzo Life Sciences, Inc., Farmingdale, NY, USA). Then, 50 µL of supernatant/well was used and 100 µL of color reagent was added in each well. Next, wells were mixed and afterwards incubated for 30 min at r.t. The OD was measured following the manufacturer’s instructions.

Chain of hCA I (P00915 whole entry): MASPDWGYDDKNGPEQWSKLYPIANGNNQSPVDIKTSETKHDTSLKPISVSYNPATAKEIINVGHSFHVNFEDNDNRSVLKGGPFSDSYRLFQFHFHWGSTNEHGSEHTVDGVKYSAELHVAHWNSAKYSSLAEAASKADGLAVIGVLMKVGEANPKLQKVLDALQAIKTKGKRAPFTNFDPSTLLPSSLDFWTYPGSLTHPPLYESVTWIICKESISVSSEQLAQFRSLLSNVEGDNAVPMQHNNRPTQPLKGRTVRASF
T4 sequence (P81908 whole entry): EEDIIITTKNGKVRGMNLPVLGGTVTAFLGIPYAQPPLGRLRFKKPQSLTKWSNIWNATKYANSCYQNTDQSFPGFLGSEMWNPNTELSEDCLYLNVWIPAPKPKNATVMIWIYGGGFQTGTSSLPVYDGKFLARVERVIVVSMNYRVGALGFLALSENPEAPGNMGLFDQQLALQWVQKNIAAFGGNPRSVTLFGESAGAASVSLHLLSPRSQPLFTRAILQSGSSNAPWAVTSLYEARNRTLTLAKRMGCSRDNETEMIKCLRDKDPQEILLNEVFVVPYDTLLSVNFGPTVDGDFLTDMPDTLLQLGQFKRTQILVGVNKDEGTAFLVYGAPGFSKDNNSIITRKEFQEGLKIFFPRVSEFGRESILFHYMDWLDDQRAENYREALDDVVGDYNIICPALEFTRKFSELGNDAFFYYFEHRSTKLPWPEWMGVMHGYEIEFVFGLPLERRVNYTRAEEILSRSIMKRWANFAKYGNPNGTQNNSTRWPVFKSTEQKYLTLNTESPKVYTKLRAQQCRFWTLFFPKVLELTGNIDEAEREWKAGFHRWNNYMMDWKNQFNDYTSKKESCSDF
T3 sequence (O42275 24-633): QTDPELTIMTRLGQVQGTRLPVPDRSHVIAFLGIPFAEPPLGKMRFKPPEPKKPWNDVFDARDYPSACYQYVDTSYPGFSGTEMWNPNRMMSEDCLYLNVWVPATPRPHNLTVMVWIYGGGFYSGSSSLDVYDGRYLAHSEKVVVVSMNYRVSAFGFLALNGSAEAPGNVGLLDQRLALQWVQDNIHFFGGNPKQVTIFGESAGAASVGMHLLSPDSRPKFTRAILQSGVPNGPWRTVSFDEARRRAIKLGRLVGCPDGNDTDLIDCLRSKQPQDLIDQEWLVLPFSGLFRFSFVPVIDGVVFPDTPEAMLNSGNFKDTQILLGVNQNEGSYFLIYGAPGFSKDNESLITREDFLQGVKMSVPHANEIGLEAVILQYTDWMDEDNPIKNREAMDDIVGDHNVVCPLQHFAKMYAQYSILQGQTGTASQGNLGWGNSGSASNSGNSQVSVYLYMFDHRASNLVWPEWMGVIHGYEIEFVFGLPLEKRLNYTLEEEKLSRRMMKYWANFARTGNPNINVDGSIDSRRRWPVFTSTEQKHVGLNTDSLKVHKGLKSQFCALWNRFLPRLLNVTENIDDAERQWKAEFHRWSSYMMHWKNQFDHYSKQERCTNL
Chain of hCA VII (P43166 whole entry): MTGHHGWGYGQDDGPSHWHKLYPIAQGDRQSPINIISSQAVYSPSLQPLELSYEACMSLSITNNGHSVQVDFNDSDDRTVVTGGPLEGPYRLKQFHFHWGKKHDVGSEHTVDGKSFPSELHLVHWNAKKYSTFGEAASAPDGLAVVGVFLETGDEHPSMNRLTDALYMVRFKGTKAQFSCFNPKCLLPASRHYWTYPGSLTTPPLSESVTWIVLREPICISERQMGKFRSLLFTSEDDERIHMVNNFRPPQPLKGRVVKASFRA
Chain of hCA XII (O43570 25-354): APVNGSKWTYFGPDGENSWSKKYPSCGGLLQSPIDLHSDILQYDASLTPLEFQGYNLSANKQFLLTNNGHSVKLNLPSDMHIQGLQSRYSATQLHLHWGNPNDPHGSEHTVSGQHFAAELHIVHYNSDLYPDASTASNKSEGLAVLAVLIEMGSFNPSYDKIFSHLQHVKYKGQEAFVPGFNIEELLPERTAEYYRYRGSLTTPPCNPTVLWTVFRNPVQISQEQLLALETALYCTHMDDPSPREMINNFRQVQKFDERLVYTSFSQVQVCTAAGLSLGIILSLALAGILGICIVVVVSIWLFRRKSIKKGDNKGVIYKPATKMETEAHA

SMILES | IL-6 secretion [1] | Ki [2] [µM] | Ki [3] [µM] | Ki [4] [µM] | Ki [5] [µM] | Ki ([6]; mean of 3 different assays) [µM] | IC50 [7] | SI (selectivity index for hMAO-B over hMAO-A) [8] | IC50 [8] | IC50 [9] [µM] | IC50 [10] [µM] | cell metabolic activity (MTT), biocompatibility [11] | cell metabolic activity (MTT) versus LPS only control [12] | other results
CC(=O)Nc1nnc(S(N)(=O)=O)s1 [AAZ, acetazolamide, reference compound] | the highest concentrations of AAZ are capable of decreasing IL-6 secretion in a significant manner |  |  |  |  |  |  |  |  |  |  |  |  | 
C#CCCCOc1cc(=O)oc2ccccc12 [Compound 1, 4-(Pent-4-yn-1-yloxy)-2H-chromen-2-one] |  | 6.26 | > 10 | 0.0598 | 0.0172 | 0.0048 | > 10 µM and 51.2 µM | <0.51 | > 100 µM | > 100 | 33 ± 1 | good biocompatibility, with a cell metabolic activity significantly decreased only after 48 h and at the highest concentration tested (150 µM) |  | 
C#CCCCCOc1cc(=O)oc2ccccc12 [Compound 2, 4-(Hex-5-yn-1-yloxy)-2H-chromen-2-one] |  | > 10 | > 10 | 0.0469 | 0.009 | 0.0048 | > 10 µM and 10.8 µM | 0.42 | > 10 µM and 25.9 µM | > 100 | 21 ± 1 | good biocompatibility, with a cell metabolic activity significantly decreased only after 48 h and at the highest concentration tested (150 µM) | able to counteract the LPS-induced increase in cell metabolic activity | BuChE mode of inhibition ([10]; Cornish-Bowden plots): mixed inhibition mechanism; Kib BuChE (inhibitor binding the ES complex) ([10]; Cornish-Bowden plots): 25 ± 3 µM; Ki ([10]; Cornish-Bowden plots, read-out: Kia BuChE (inhibitor binding the free enzyme) (converted)): 13 µM
C#CCOc1ccc2oc(=O)ccc2c1 [Compound 3, 6-(Prop-2-ynyloxy)-2H-chromen-2-one] |  |  |  | 0.0617 |  |  | > 10 µM and 40.2 µM |  | > 10 µM and 65.4 µM | > 100 | > 100 | well tolerated up to 48 h and display a good biocompatibility at the longest exposure time (72 h) | able to counteract the LPS-induced increase in cell metabolic activity | 
CC#CCOc1ccc2oc(=O)ccc2c1 [Compound 4, 6-(But-2-yn-1-yloxy)-2H-chromen-2-one] |  | > 10 | > 10 | 0.0633 | 0.0242 | 0.0043 | > 10 µM and 55.7 µM | 4.6 | > 10 µM and 12.1 µM | > 100 | > 100 | well tolerated up to 48 h and display a good biocompatibility at the longest exposure time (72 h) |  | H2O2 generation ([13]; 10 µM): restoring it to the untreated control levels
C#CCOc1ccc2ccc(=O)oc2c1 [Compound 5, 7-(Prop-2-ynyloxy)-2H-chromen-2-one] | had an effect on IL-6 release | > 10 | > 10 | 0.0519 |  | 0.73 |  |  | 5.79 ± 0.26 µM | > 100 | > 100 | cell metabolic activity significantly decreases at all the concentrations tested at 48 h |  | H2O2 generation ([13]; 0.01 µM): restoring it to the untreated control levels
CC#CCOc1ccc2ccc(=O)oc2c1 [Compound 6, 7-(But-2-yn-1-yloxy)-2H-chromen-2-one] |  | > 10 | > 10 | 0.0682 | 0.0093 | 0.0068 | 21.3 ± 0.77 µM | 85.3 | 0.25 ± 0.017 µM | > 100 | > 100 | cell metabolic activity significantly decreases at all the concentrations tested at 48 h |  | H2O2 generation ([13]; 150 µM): restoring it to the untreated control levels
CCC#CCOc1ccc2ccc(=O)oc2c1 [Compound 7, 7-(Pent-2-yn-1-yloxy)-2H-chromen-2-one] |  | > 10 | > 10 | 0.0635 | 0.013 |  | 11.2 ± 0.39 µM |  | 0.008 ± 0.00062 µM |  | 59 ± 1 |  |  | Ki [6]: 0.0068 µM; inhibition at 100 µM ([9]; read-out: inhibition of AChE at 100 µM, 100 µM): 50%; H2O2 generation ([13]; 0.01 µM): restoring it to the untreated control levels; also recorded: strong reduction in H2O2 release
C#CCCCOc1ccc2ccc(=O)oc2c1 [Compound 8, 7-(Pent-4-yn-1-yloxy)-2H-chromen-2-one] |  | > 10 | > 10 | 0.0693 | 0.0266 | 0.0065 | 5.7 ± 0.21 µM |  | 0.51 ± 0.0099 µM | > 100 | > 100 |  | able to counteract the LPS-induced increase in cell metabolic activity | 
C#CCN(C)C(C)Cc1ccccc1 (centres unmarked) [DEP, deprenyl, reference compound] | increases the amount of IL-6 at the highest concentration tested |  |  |  |  |  |  |  |  |  |  |  |  | 
